{"source": "patent US8192962B2", "about": "“Processes for detecting toxic substances” (Daikin Industries, Ltd., priority 2001, dated 2012)", "system": "Unknown protein yeast genes", "assay": "DNA chip mRNA expression in yeast, unknown protein yeast genes (Table 1)", "type": "cell-based, Saccharomyces cerevisiae S288C", "experimental": "Yeast (Saccharomyces cerevisiae S288C (α SUC2mal mel gap2 CUP1)) were incubated at 25° C. on YPD medium (yeast extract 1%, polypepton 2%, glucose 2%). One of toxic chemical substances was added to the cells at logarithmic growth phase, and the cells were further incubated for two hours. Cells were cultured without any chemical substance in the same condition, and were used as control. Concentrations of the chemical substances were defined to inhibit the growth of the yeast but not lead to death.\nAfter completion of the incubation, the culture was centrifuged to collect the cells. To the cells, sodium acetate buffer (50 mM sodium acetate, 10 mM EDTA, 1% SDS) was added, and the mixture was shaken at 65° C. for five minutes, followed by returning to room temperature, and obtaining the supernatant, of which the procedures were repeated two times. To the supernatant, ½ amount of a solution of phenol/chloroform was added, and the mixture was centrifuged to give a supernatant, which was added with an equal amount of chloroform, and the mixture was centrifuged to give a supernatant. To the supernatant, an equal amount of isopropanol containing 0.3 M sodium acetate was added, and the mixture was allowed to stand at room temperature for 30 minutes, after which the mixture was centrifuged to give a sediment of the whole RNAs. Seventy % ethanol was added to the sediment, and the mixture was again centrifuged to give a sediment, which was then dried and dissolved in water. mRNA was isolated from the whole RNAs as followings. In view of the fact that a poly A chain is attached to the 3′ terminus of mRNA, a polynucleotide having a poly T structure which was immobilized on the surface of latex beads was used to trap the mRNA, and then the mRNA was washed and eluted with spine column (Oligotex-dT30<Super>mRNA Purification Kit, Takara). Reverse transcription of the mRNA was conducted with a reverse transcriptase (Super Script II Reverse Transcriptase; catalogue No. 18064-014, GibcoBRL) using fluorescence-labeled nucleotides to give cDNAs that were introduced with Cy3-dUTP or Cy5-dUTP during the reverse transcription.\nThe labeled cDNAs were dissolved in TE buffer (10mM Tris-HCl/1 mM EDTA, pH8.0), and the solution was dropped on the DNA chip containing the whole genes of yeast (DNA Chip Research Inc. Japan) so that the cDNAs were hybridized on the DNA chip at 65° C. for over 12 hours. The fluoresces intensity of the DNA chip was read with a scanner, and the ratio relative to the fluorescence intensity resulting from the absence of chemical substance was estimated as the following, which is shown in Tables 1 to 9: […]"}
{"smiles": "CCCCCCCCCCCCc1ccc(S(=O)(=O)[O-])cc1.[Na+]", "note": "[(17), sodium dodecylbenzosulfonate]", "values": [{"measurement": "The level of expressed mRNA in the presence of chemical substance/The level of expressed mRNA in the absence of chemical substance", "setting": "yeast gene YAL053W, incubated two hours with chemical substance", "value": 1.2}, {"measurement": "The level of expressed mRNA in the presence of chemical substance/The level of expressed mRNA in the absence of chemical substance", "setting": "yeast gene YBL048W", "value": 1.3}, {"measurement": "The level of expressed mRNA in the presence of chemical substance/The level of expressed mRNA in the absence of chemical substance", "setting": "yeast gene YBL107C", "value": 0.9}, {"measurement": "The level of expressed mRNA in the presence of chemical substance/The level of expressed mRNA in the absence of chemical substance", "setting": "yeast gene YDL072C, incubated two hours with chemical substance", "value": 1.6}, {"measurement": "The level of expressed mRNA in the presence of chemical substance/The level of expressed mRNA in the absence of chemical substance", "setting": "yeast gene YDL204W, incubated two hours with chemical substance", "value": 1.8}, {"measurement": "The level of expressed mRNA in the presence of chemical substance/The level of expressed mRNA in the absence of chemical substance", "setting": "yeast gene YDL222C, incubated two hours with chemical substance", "value": 0.9}, {"measurement": "The level of expressed mRNA in the presence of chemical substance/The level of expressed mRNA in the absence of chemical substance", "setting": "yeast gene YDR330W, incubated two hours with chemical substance", "value": 1.5}, {"measurement": "The level of expressed mRNA in the presence of chemical substance/The level of expressed mRNA in the absence of chemical substance", "setting": "yeast gene YDR411C, incubated two hours with chemical substance", "value": 1.5}, {"measurement": "The level of expressed mRNA in the presence of chemical substance/The level of expressed mRNA in the absence of chemical substance", "setting": "yeast gene YDR511W, incubated two hours with chemical substance", "value": 1.3}, {"measurement": "The level of expressed mRNA in the presence of chemical substance/The level of expressed mRNA in the absence of chemical substance", "setting": "yeast gene YDR545W, incubated two hours with chemical substance", "value": 0.9}, {"measurement": "The level of expressed mRNA in the presence of chemical substance/The level of expressed mRNA in the absence of chemical substance", "setting": "yeast gene YEL001C, incubated two hours with chemical substance", "value": 0.7}, {"measurement": "The level of expressed mRNA in the presence of chemical substance/The level of expressed mRNA in the absence of chemical substance", "setting": "yeast gene YER004W, incubated two hours with chemical substance", "value": 1.4}, {"measurement": "The level of expressed mRNA in the presence of chemical substance/The level of expressed mRNA in the absence of chemical substance", "setting": "yeast gene YER035W, incubated two hours with chemical substance", "value": 2.2}, {"measurement": "The level of expressed mRNA in the presence of chemical substance/The level of expressed mRNA in the absence of chemical substance", "setting": "yeast gene YER079W, incubated two hours with chemical substance", "value": 1.0}, {"measurement": "The level of expressed mRNA in the presence of chemical substance/The level of expressed mRNA in the absence of chemical substance", "setting": "yeast gene YER106W, incubated two hours with chemical substance", "value": 0.8}, {"measurement": "The level of expressed mRNA in the presence of chemical substance/The level of expressed mRNA in the absence of chemical substance", "setting": "yeast gene YER158C, incubated two hours with chemical substance", "value": 1.6}, {"measurement": "The level of expressed mRNA in the presence of chemical substance/The level of expressed mRNA in the absence of chemical substance", "setting": "yeast gene YER163C, incubated two hours with chemical substance", "value": 1.2}, {"measurement": "The level of expressed mRNA in the presence of chemical substance/The level of expressed mRNA in the absence of chemical substance", "setting": "yeast gene YER175C, incubated two hours with chemical substance", "value": 0.9}, {"measurement": "The level of expressed mRNA in the presence of chemical substance/The level of expressed mRNA in the absence of chemical substance", "setting": "yeast gene YFL006W, incubated two hours with chemical substance", "value": 1.0}, {"measurement": "The level of expressed mRNA in the presence of chemical substance/The level of expressed mRNA in the absence of chemical substance", "setting": "yeast gene YFL010C, incubated two hours with chemical substance", "value": 1.9}, {"measurement": "The level of expressed mRNA in the presence of chemical substance/The level of expressed mRNA in the absence of chemical substance", "setting": "yeast gene YFL024C", "value": 0.9}, {"measurement": "The level of expressed mRNA in the presence of chemical substance/The level of expressed mRNA in the absence of chemical substance", "setting": "yeast gene YFL032W, incubated two hours with chemical substance", "value": 1.7}, {"measurement": "The level of expressed mRNA in the presence of chemical substance/The level of expressed mRNA in the absence of chemical substance", "setting": "yeast gene YGL037C, incubated two hours with chemical substance", "value": 1.3}, {"measurement": "The level of expressed mRNA in the presence of chemical substance/The level of expressed mRNA in the absence of chemical substance", "setting": "yeast gene YGL047W, incubated two hours with chemical substance", "value": 1.1}, {"measurement": "The level of expressed mRNA in the presence of chemical substance/The level of expressed mRNA in the absence of chemical substance", "setting": "yeast gene YGL053W, incubated two hours with chemical substance", "value": 2.2}, {"measurement": "The level of expressed mRNA in the presence of chemical substance/The level of expressed mRNA in the absence of chemical substance", "setting": "yeast gene YGL121C", "value": 2.7}, {"measurement": "The level of expressed mRNA in the presence of chemical substance/The level of expressed mRNA in the absence of chemical substance", "setting": "yeast gene YGL199C, incubated two hours with chemical substance", "value": 1.2}, {"measurement": "The level of expressed mRNA in the presence of chemical substance/The level of expressed mRNA in the absence of chemical substance", "setting": "yeast gene YGR101W, incubated two hours with chemical substance", "value": 1.0}, {"measurement": "The level of expressed mRNA in the presence of chemical substance/The level of expressed mRNA in the absence of chemical substance", "setting": "yeast gene YGR110W", "value": 0.9}, {"measurement": "The level of expressed mRNA in the presence of chemical substance/The level of expressed mRNA in the absence of chemical substance", "setting": "yeast gene YGR130C, incubated two hours with chemical substance", "value": 1.3}, {"measurement": "The level of expressed mRNA in the presence of chemical substance/The level of expressed mRNA in the absence of chemical substance", "setting": "yeast gene YGR154C, incubated two hours with chemical substance", "value": 1.0}, {"measurement": "The level of expressed mRNA in the presence of chemical substance/The level of expressed mRNA in the absence of chemical substance", "setting": "yeast gene YGR221C, incubated two hours with chemical substance", "value": 1.3}, {"measurement": "The level of expressed mRNA in the presence of chemical substance/The level of expressed mRNA in the absence of chemical substance", "setting": "yeast gene YHR138C, incubated two hours with chemical substance", "value": 5.0}, {"measurement": "The level of expressed mRNA in the presence of chemical substance/The level of expressed mRNA in the absence of chemical substance", "setting": "yeast gene YHR199C, incubated two hours with chemical substance", "value": 1.1}, {"measurement": "The level of expressed mRNA in the presence of chemical substance/The level of expressed mRNA in the absence of chemical substance", "setting": "yeast gene YIL023C, incubated two hours with chemical substance", "value": 1.2}, {"measurement": "The level of expressed mRNA in the presence of chemical substance/The level of expressed mRNA in the absence of chemical substance", "setting": "yeast gene YIL041W, incubated two hours with chemical substance", "value": 0.8}, {"measurement": "The level of expressed mRNA in the presence of chemical substance/The level of expressed mRNA in the absence of chemical substance", "setting": "yeast gene YIL087C, incubated two hours with chemical substance", "value": 1.7}, {"measurement": "The level of expressed mRNA in the presence of chemical substance/The level of expressed mRNA in the absence of chemical substance", "setting": "yeast gene YJL057C, incubated two hours with chemical substance", "value": 1.4}, {"measurement": "The level of expressed mRNA in the presence of chemical substance/The level of expressed mRNA in the absence of chemical substance", "setting": "yeast gene YJL066C, incubated two hours with chemical substance", "value": 1.4}, {"measurement": "The level of expressed mRNA in the presence of chemical substance/The level of expressed mRNA in the absence of chemical substance", "setting": "yeast gene YJL082W, incubated two hours with chemical substance", "value": 0.6}, {"measurement": "The level of expressed mRNA in the presence of chemical substance/The level of expressed mRNA in the absence of chemical substance", "setting": "yeast gene YJL151C, incubated two hours with chemical substance", "value": 3.5}, {"measurement": "The level of expressed mRNA in the presence of chemical substance/The level of expressed mRNA in the absence of chemical substance", "setting": "yeast gene YJL152W, incubated two hours with chemical substance", "value": 2.5}, {"measurement": "The level of expressed mRNA in the presence of chemical substance/The level of expressed mRNA in the absence of chemical substance", "setting": "yeast gene YJL161W, incubated two hours with chemical substance", "value": 1.9}, {"measurement": "The level of expressed mRNA in the presence of chemical substance/The level of expressed mRNA in the absence of chemical substance", "setting": "yeast gene YJL171C, incubated two hours with chemical substance", "value": 3.6}, {"measurement": "The level of expressed mRNA in the presence of chemical substance/The level of expressed mRNA in the absence of chemical substance", "setting": "yeast gene YJR008W, incubated two hours with chemical substance", "value": 1.5}, {"measurement": "The level of expressed mRNA in the presence of chemical substance/The level of expressed mRNA in the absence of chemical substance", "setting": "yeast gene YJR054W, incubated two hours with chemical substance", "value": 0.9}, {"measurement": "The level of expressed mRNA in the presence of chemical substance/The level of expressed mRNA in the absence of chemical substance", "setting": "yeast gene YKL071W", "value": 1.0}, {"measurement": "The level of expressed mRNA in the presence of chemical substance/The level of expressed mRNA in the absence of chemical substance", "setting": "yeast gene YKL086W, incubated two hours with chemical substance", "value": 0.9}, {"measurement": "The level of expressed mRNA in the presence of chemical substance/The level of expressed mRNA in the absence of chemical substance", "setting": "yeast gene YKL151C, incubated two hours with chemical substance", "value": 1.4}, {"measurement": "The level of expressed mRNA in the presence of chemical substance/The level of expressed mRNA in the absence of chemical substance", "setting": "yeast gene YKL153W, incubated two hours with chemical substance", "value": 0.9}]}
